Results taken from patent US20120225062A1 (priority 2011, published 2012).
pEC50, pIC50: −log10 of the molar value.

Tests used:
[1] = target: Pim 2 (Homo sapiens, UniProt Q9P1W9); assay: Pim 2 AlphaScreen assay (high ATP)
[2] = target: Pim 1 (Homo sapiens, UniProt P11309); assay: Pim 1 AlphaScreen assay (high ATP)
[3] = target: Pim 3 (Homo sapiens, UniProt Q86V86); assay: Pim 3 AlphaScreen assay (high ATP)
[4] = test system: KMS11 (human myeloma cell line); assay: Cell Proliferation Assay (CellTiter-Glo, 3 days); assay type: cell-based; details: KMS-11, 72 h, KMS11-luc cells
How it was run: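 KMS11 myeloma cells, 2000 per well in IMDM with 10% FBS, exposed to compound for 3 days at 37° C. Viability read by CellTiter-Glo luminescence; EC50 derived.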

Sequence of Pim 1 (P11309 whole entry): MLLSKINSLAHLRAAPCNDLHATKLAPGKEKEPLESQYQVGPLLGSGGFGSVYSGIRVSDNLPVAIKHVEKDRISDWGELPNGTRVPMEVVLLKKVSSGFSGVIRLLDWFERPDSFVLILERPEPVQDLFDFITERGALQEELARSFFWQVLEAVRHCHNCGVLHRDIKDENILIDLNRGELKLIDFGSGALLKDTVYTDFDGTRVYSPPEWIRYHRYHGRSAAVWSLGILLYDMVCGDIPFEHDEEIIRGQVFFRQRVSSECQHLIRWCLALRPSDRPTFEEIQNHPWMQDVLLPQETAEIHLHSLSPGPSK
Sequence of Pim 2 (Q9P1W9 whole entry): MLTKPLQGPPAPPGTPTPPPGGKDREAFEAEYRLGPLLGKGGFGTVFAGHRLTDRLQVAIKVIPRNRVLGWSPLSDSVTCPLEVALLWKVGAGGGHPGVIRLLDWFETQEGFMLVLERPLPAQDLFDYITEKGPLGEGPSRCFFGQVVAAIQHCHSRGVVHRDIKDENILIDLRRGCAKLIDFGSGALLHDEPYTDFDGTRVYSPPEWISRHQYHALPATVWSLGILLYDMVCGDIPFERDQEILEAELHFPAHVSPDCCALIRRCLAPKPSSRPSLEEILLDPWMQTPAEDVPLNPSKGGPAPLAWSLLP

SMILES	pIC50 [1]	pIC50 [2]	pIC50 [3]	pEC50 [4]
COCCOc1cc(F)c(-c2nc(C(=O)Nc3cnccc3[C@@H]3C[C@H](C)C[C@H](N)C3)ccc2F)c(F)c1 [Example 12, N-(4-((1R,3S,5S)-3-amino-5-methylcyclohexyl)pyridin-3-yl)-6-(2,6-difluoro-4-(2-methoxyethoxy)phenyl)-5-fluoropicolinamide]	8.54	10.40	8.86	6.92
C[C@@H]1C[C@H](N)C[C@H](c2ccncc2NC(=O)c2ccc(F)c(-c3c(F)cc([C@H](O)CO)cc3F)n2)C1 [Example 231, N-(4-((1R,3S,5S)-3-amino-5-methylcyclohexyl)pyridin-3-yl)-6-(4-((S)-1,2-dihydroxyethyl)-2,6-difluorophenyl)-5-fluoropicolinamide]	8.59	10.40	8.82	7.34
C=CCOc1ccc(F)c(-c2nc(C(=O)Nc3cnccc3[C@H]3C[C@@H](N)[C@H](O)[C@@H](C)C3)ccc2F)c1F [Example 194, 6-(3-(allyloxy)-2.6-difluorophenyl)-N-(4-((1R,3R,4R,5S)-3-amino-4-hydroxy-5-methylcyclohexyl)pyridin-3-yl)-5-fluoropicolinamide]	7.98	10.30	8.92	5.87
C[C@@H]1C[C@H](N)C[C@H](c2ccncc2NC(=O)c2ccc(F)c(-c3c(F)cc([S@@+](C)[O-])cc3F)n2)C1 [Example 228, N-(4-((1R,3S,5S)-3-amino-5-methylcyclohexyl)pyridin-3-yl)-6-(2,6-difluoro-4-((R)-methylsulfinyl)phenyl)-5-fluoropicolinamide]	8.20	9.85	8.11	7.03
C[C@@H]1C[C@H](N)C[C@H](c2ccncc2NC(=O)c2ccc(F)c(-c3c(F)cc(-c4ccnnc4)cc3F)n2)C1 [Example 142, N-(4-((1R,3S,5S)-3-amino-5-methylcyclohexyl)pyridin-3-yl)-6-(2,6-difluoro-4-(pyridazin-4-yl)phenyl)-5-fluoropicolinamide]	7.55	9.92	7.75	5.78
C[C@@H]1C[C@H](N)C[C@H](c2ccncc2NC(=O)c2ccc(F)c(-c3c(F)cc(C4(C#N)CCOCC4)cc3F)n2)C1 [Example 170, N-(4-((1R,3S,5S)-3-amino-5-methylcyclohexyl)pyridin-3-yl)-6-(4-(4-cyanotetrahydro-2H-pyran-4-yl)-2,6-difluorophenyl)-5-fluoropicolinamide]	8.55	10.52	8.34	7.08
CC(C)Oc1cc(F)c(-c2cccc(C(=O)Nc3cnccc3[C@H]3C[C@@H](N)[C@H](O)[C@@H](C)C3)n2)c(F)c1 [Example 189, N-(4-((1R,3R,4R,5S)-3-amino-4-hydroxy-5-methylcyclohexyl)pyridin-3-yl)-6-(2,6-difluoro-4-isopropoxyphenyl)picolinamide]	8.57	10.40	9.02	6.33

The next molecules have a higher pIC50 [1] than those just listed; values first:

pIC50 [1]	pIC50 [2]	pIC50 [3]	pEC50 [4]	SMILES
9.03	11.00	9.77	7.48	C[C@@H]1C[C@H](N)C[C@H](c2ccncc2NC(=O)c2ccc(F)c(-c3c(F)cc(C4(O)CCCC4)cc3F)n2)C1 [Example 163, N-(4-((1R,3S,5S)-3-amino-5-methylcyclohexyl)pyridin-3-yl)-6-(2,6-difluoro-4-(1-hydroxycyclopentyl)phenyl)-5-fluoropicolinamide]
9.02	10.70	9.49	7.54	CSc1cc(F)c(-c2nc(C(=O)Nc3cnccc3N3C[C@@H](N)[C@H](O)[C@@H](C)C3)ccc2F)c(F)c1 [Example 23, N-(4-((3R,4R,5S)-3-amino-4-hydroxy-5-methylpiperidin-1-yl)pyridin-3-yl)-6-(2,6-difluoro-4-(methylthio)phenyl)-5-fluoropicolinamide]
9.28	11.00	9.89	6.81	C[C@H]1CN(c2ccncc2NC(=O)c2ccc(F)c(-c3c(F)cc(O[C@H]4CCCOC4)cc3F)n2)C[C@@H](N)[C@@H]1O [Example 106, N-(4-((3R,4R,5S)-3-amino-4-hydroxy-5-methylpiperidin-1-yl)pyridin-3-yl)-6-(2,6-difluoro-4-((S)-tetrahydro-2H-pyran-3-yloxy)phenyl)-5-fluoropicolinamide]
9.29	11.00	9.52	7.11	C[C@@H]1C[C@H](N)C[C@H](c2ccncc2NC(=O)c2ccc(F)c(-c3c(F)cc4c(c3F)OCC4)n2)C1 [Example 179, N-(4-((1R,3S,5S)-3-amino-5-methylcyclohexyl)pyridin-3-yl)-6-(5,7-difluoro-2,3-dihydrobenzofuran-6-yl)-5-fluoropicolinamide]
8.75	10.70	9.15	7.51	CC(C)[C@@H]1C[C@H](N)C[C@H](c2ccncc2NC(=O)c2ccc(F)c(-c3c(F)cc(C4(O)CCC4)cc3F)n2)C1 [Example 133, N-(4-((1R,3S,5S)-3-amino-5-isopropylcyclohexyl)pyridin-3-yl)-6-(2,6-difluoro-4-(1-hydroxycyclobulyl)phenyl)-5-fluoropicolinamide]
8.85	10.52	9.08	6.40	C[C@H]1C[C@@H](c2ccncc2NC(=O)c2ccc(F)c(-c3c(F)cc(OCC4CCOCC4)cc3F)n2)C[C@@H](N)[C@@H]1O [Example 178, N-(4-((1R,3R,4R,5S)-3-amino-4-hydroxy-5-methylcyclohexyl)pyridin-3-yl)-6-(2,6-difluoro-4-((tetrahydro-2H-pyran-4-yl)methoxy)phenyl)-5-fluoropicolinamide]
8.94	11.00	9.62	7.12	CC(C)Oc1cc(F)c(-c2nc(C(=O)Nc3cnccc3[C@@H]3C[C@H](C)C[C@H](N)C3)c(N)cc2F)c(F)c1 [Example 96, 3-amino-N-(4-((1R,3S,5S)-3-amino-5-methylcyclohexyl)pyridin-3-yl)-6-(2,6-difluoro-4-isopropoxyphenyl)-5-fluoropicolinamide]
9.03	10.52	9.43	7.96	C[C@H]1CN(c2ccncc2NC(=O)c2ccc(F)c(-c3c(F)cc([S@+](C)[O-])cc3F)n2)C[C@@H](N)[C@@H]1O [Example 25, N-(4-((3R,4R,5S)-3-amino-4-hydroxy-5-methylpiperidin-1-yl)pyridin-3-yl)-6-(2,6-difluoro-4-((S)-methylsulfinyl)phenyl)-5-fluoropicolinamide]
8.74	10.52	9.02	7.00	CC(C)Oc1cc(F)c(-c2nc(C(=O)Nc3cnccc3[C@H]3C[C@@H](N)[C@@H](O)[C@@H](C)C3)ccc2F)c(F)c1 [Example 125, N-(4-((1R,3R,4S,5S)-3-amino-4-hydroxy-5-methylcyclohexyl)pyridin-3-yl)-6-(2,6-difluoro-4-isopropoxyphenyl)-5-fluoropicolinamide]
8.69	10.70	9.41	7.55	CCOc1ccc(F)c(-c2nc(C(=O)Nc3cnccc3N3C[C@@H](N)[C@H](O)[C@@H](C)C3)ccc2F)c1F [Example 216, N-(4-((3R,4R,5S)-3-amino-4-hydroxy-5-methylpiperidin-1-yl)pyridin-3-yl)-6-(3-ethoxy-2,6-difluorophenyl)-5-fluoropicolinamide]
